Experimental data as given in PubChem BioAssay AID1259407 (Chemical Carcinogenesis Research Information System (CCRIS), 2018).
Calls of active or inactive are those of the source. No rule for the calls is given here.

System: CCRIS mutagenicity, Ames/micronucleus/aberration tests
Experiment: CCRIS mutagenicity studies

Cc1c2ccccc2c(C)c2c1ccc1ccccc12 was tested, and the mutagenic call (End Point: IN VITRO CHROMOSOMAL ABERRATIONS, Test System: CHL/IU CELLS, Metabolic Activation: RAT, LIVER, S-9, PHENOBARBITAL AND 5,6-BENZOFLAVONE) was “active; positive (structural changes)”, the mutagenic call (End Point: IN VITRO MICRONUCLEUS, Test System: CHL/IU CELLS, Metabolic Activation: RAT, LIVER, S-9, PHENOBARBITAL AND 5,6-BENZOFLAVONE) was “active; positive” and the mutagenic call (End Point: IN VITRO MICRONUCLEUS, Test System: CHO CELLS, Metabolic Activation: RAT, LIVER, S-9, AROCLOR 1254) was “active; positive”. For the same compound, the mutagenic call (End Point: IN VITRO MICRONUCLEUS, Test System: V79 CELLS, Metabolic Activation: RAT, LIVER, S-9, AROCLOR 1254) was “active; positive”, the mutagenic call (End Point: IN VIVO CHROMOSOMAL ABERRATIONS, Test System: MAMMARY GLAND CELLS, USING DUAL PROBE FISH, Species: RAT, Strain/Sex: SPRAGUE-DAWLEY/FEMALE, Route: INTRAGASTRIC) was “active; positive (hyperdiploidy and polyploidy)” and the mutagenic call (End Point: IN VIVO MICRONUCLEUS, Test System: BLOOD ERYTHROCYTES, Species: MOUSE, Strain/Sex: CD-1/MALE, Route: ORAL) was “active; positive”. The mutagenic call (End Point: IN VIVO MICRONUCLEUS, Test System: MAMMARY GLAND CELLS, Species: RAT, Strain/Sex: SPRAGUE-DAWLEY/FEMALE, Route: INTRAGASTRIC) was “inactive; negative”, the mutagenic call (Test System: AMES SALMONELLA TYPHIMURIUM, Strain/Indicator: TA97, Metabolic Activation: NONE, Method: STANDARD PLATE) was “active; positive” and the mutagenic call (Test System: AMES SALMONELLA TYPHIMURIUM, Strain/Indicator: TA97, Metabolic Activation: RAT, LIVER, S-9, PCB, Method: STANDARD PLATE) was “active; positive”. The mutagenic call (Test System: AMES SALMONELLA TYPHIMURIUM, Strain/Indicator: TA98, Metabolic Activation: NONE, Method: SPIRAL ASSAY) was “active; positive”, the mutagenic call (Test System: AMES SALMONELLA TYPHIMURIUM, Strain/Indicator: TA98, Metabolic Activation: RAT, LIVER, S-9, AROCLOR 1254, Method: SPIRAL ASSAY) was “active; positive” and the mutagenic call (Test System: AMES SALMONELLA TYPHIMURIUM, Strain/Indicator: TA98, Metabolic Activation: RAT, LIVER, S-9, AROCLOR 1254, Method: STANDARD PLATE) was “active; positive”. For the same compound, the mutagenic call (Test System: AMES SALMONELLA TYPHIMURIUM, Strain/Indicator: TA98, Metabolic Activation: RAT, LIVER, S-9, PCB, Method: STANDARD PLATE) was “active; positive”, the mutagenic call (Test System: AMES SALMONELLA TYPHIMURIUM, Strain/Indicator: TA98, Method: STANDARD PLATE) was “active; positive” and the mutagenic call (Test System: AMES SALMONELLA TYPHIMURIUM, Strain/Indicator: TA100, Metabolic Activation: MOUSE, LIVER, MICROSOMES, BENZO[E]PYRENE AND TCDD, Method: STANDARD PLATE) was “active; positive”. The mutagenic call (Test System: AMES SALMONELLA TYPHIMURIUM, Strain/Indicator: TA100, Metabolic Activation: NONE, Method: SPIRAL ASSAY) was “active; positive”, the mutagenic call (Test System: AMES SALMONELLA TYPHIMURIUM, Strain/Indicator: TA100, Metabolic Activation: RAT, INTACT HEPATOCYTES, AROCLOR 1254, Method: PREINCUBATION) was “active; positive” and the mutagenic call (Test System: AMES SALMONELLA TYPHIMURIUM, Strain/Indicator: TA100, Metabolic Activation: RAT, LIVER, MICROSOMES, 3-METHYLCHOLANTHRENE, Method: PREINCUBATION) was “active; positive”. The mutagenic call (Test System: AMES SALMONELLA TYPHIMURIUM, Strain/Indicator: TA100, Metabolic Activation: RAT, LIVER, MICROSOMES, SODIUM PHENOBARBITAL, Method: PREINCUBATION) was “active; positive”, the mutagenic call (Test System: AMES SALMONELLA TYPHIMURIUM, Strain/Indicator: TA100, Metabolic Activation: RAT, LIVER, MICROSOMES, SUDAN III, Method: PREINCUBATION) was “active; positive” and the mutagenic call (Test System: AMES SALMONELLA TYPHIMURIUM, Strain/Indicator: TA100, Metabolic Activation: RAT, LIVER, MICROSOMES, Method: PREINCUBATION) was “active; positive”. For the same compound, the mutagenic call (Test System: AMES SALMONELLA TYPHIMURIUM, Strain/Indicator: TA100, Metabolic Activation: RAT, LIVER, S-9, AROCLOR 1254, Method: SPIRAL ASSAY) was “active; positive”, the mutagenic call (Test System: AMES SALMONELLA TYPHIMURIUM, Strain/Indicator: TA100, Metabolic Activation: RAT, LIVER, S-9, AROCLOR 1254, Method: STANDARD PLATE) was “active; positive” and the mutagenic call (Test System: AMES SALMONELLA TYPHIMURIUM, Strain/Indicator: TA100, Metabolic Activation: RAT, LIVER, S-9, EUGENOL, Method: PREINCUBATION) was “active; positive”. For the same compound, the mutagenic call (Test System: AMES SALMONELLA TYPHIMURIUM, Strain/Indicator: TA100, Metabolic Activation: RAT, LIVER, S-9, KC500 OR PHENOBARBITAL, Method: LIQUID SUSPENSION) was “active; positive”, the mutagenic call (Test System: AMES SALMONELLA TYPHIMURIUM, Strain/Indicator: TA100, Metabolic Activation: RAT, LIVER, S-9, PCB, Method: STANDARD PLATE) was “active; positive” and the mutagenic call (Test System: AMES SALMONELLA TYPHIMURIUM, Strain/Indicator: TA100, Metabolic Activation: RAT, LIVER, S-9, PHENOBARBITAL, Method: STANDARD PLATE) was “active; positive”. For the same compound, the mutagenic call (Test System: AMES SALMONELLA TYPHIMURIUM, Strain/Indicator: TA100, Metabolic Activation: RAT, LIVER, S-9, Method: PREINCUBATION) was “active; positive”, the mutagenic call (Test System: AMES SALMONELLA TYPHIMURIUM, Strain/Indicator: TA100, Metabolic Activation: RAT, NADPH-FORTIFIED HOMOGENIZED HEPATOCYTES, AROCLOR 1254, Method: PREINCUBATION) was “active; positive” and the mutagenic call (Test System: AMES SALMONELLA TYPHIMURIUM, Strain/Indicator: TA100, Metabolic Activation: RAT, SONICATED HEPATOCYTES, AROCLOR 1254, Method: PREINCUBATION) was “active; positive”. For the same compound, the mutagenic call (Test System: AMES SALMONELLA TYPHIMURIUM, Strain/Indicator: TA100, Method: STANDARD PLATE) was “active; positive”, the mutagenic call (Test System: AMES SALMONELLA TYPHIMURIUM, Strain/Indicator: TA1535, Metabolic Activation: NONE, Method: SPIRAL ASSAY) was “inactive; negative” and the mutagenic call (Test System: AMES SALMONELLA TYPHIMURIUM, Strain/Indicator: TA1535, Metabolic Activation: NONE, Method: STANDARD PLATE) was “inactive; negative”.
